The structures appear in SMILES notation.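 48-hour exposure; five concentrations; linearly interpolated endpoints. Here, GI50 denotes the concentration required for 50% inhibition of growth. TGI: concentration producing complete growth inhibition.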

Test systems include A498 renal; A549 NSCLC; CCRF-CEM leukemia; DU-145 prostate; HS 578T breast; MCF7 breast; NCI-H522 lung; SF-295 CNS; SN12C renal; UACC-62 melanoma.
What all share (experiment): NCI anticancer screen, dose series, 48 h

As for `CCOCCc1c(O)nc(SC)[nH]c1=O`, the GI50 in the experiment with A498 renal, in the experiment with A549 NSCLC, in the experiment with CCRF-CEM leukemia, in the experiment with DU-145 prostate, with HS 578T breast and in the experiment with MCF7 breast was over 100 µM each time. In addition, the GI50 in the experiment with NCI-H522 lung, in the experiment with SF-295 CNS, in the experiment on SN12C renal and with UACC-62 melanoma was over 100 µM in each case. The TGI with A498 renal, in the experiment on A549 NSCLC, in the experiment on CCRF-CEM leukemia, in the experiment on DU-145 prostate, in the experiment on HS 578T breast and in the experiment with MCF7 breast was over 100 µM throughout. The TGI in the experiment with NCI-H522 lung, with SF-295 CNS, in the experiment on SN12C renal and in the experiment with UACC-62 melanoma was over 100 µM each time.
Consider `O=C1Nc2ccccc2C1(c1ccc(O)c(F)c1)c1ccc(O)c(F)c1`, for which the GI50 in the experiment with A498 renal is 11.1 µM; with A549 NSCLC, 19.1 µM; with CCRF-CEM leukemia, 17.8 µM; with DU-145 prostate, 11.9 µM; in the experiment with HS 578T breast it was 0.3 µM; in the experiment with MCF7 breast, 0.27 µM. In addition, the GI50 was 11.5 µM with NCI-H522 lung, 12.5 µM in the experiment on SF-295 CNS, 0.353 µM with SN12C renal and 10.2 µM in the experiment with UACC-62 melanoma. For the same compound, the TGI was 27.4 µM with A498 renal; 81.8 µM in the experiment on A549 NSCLC; 73.3 µM with CCRF-CEM leukemia; 42.7 µM in the experiment on DU-145 prostate; 4.44 µM with HS 578T breast; 2.81 µM with MCF7 breast. Also, the TGI in the experiment on NCI-H522 lung worked out at 31.3 µM; with SF-295 CNS, 28.5 µM; in the experiment with SN12C renal, 12.2 µM; in the experiment on UACC-62 melanoma, 33.7 µM.
With `COc1ccc(Nc2c3c4c(cccc4[nH]c2=O)C(=O)c2ccccc2-3)cc1`, the GI50 with A498 renal was under 0.0192 µM; in the experiment on A549 NSCLC, under 0.0221 µM; in the experiment on DU-145 prostate, under 0.0181 µM; with HS 578T breast it was 0.0238 µM; with MCF7 breast, under 0.0182 µM; in the experiment on NCI-H522 lung, under 0.0175 µM. The GI50 in the experiment on SF-295 CNS is under 0.0174 µM; in the experiment with SN12C renal, 0.0544 µM; in the experiment on UACC-62 melanoma, 0.031 µM. In addition, the TGI in the experiment with A549 NSCLC was over 32.1 µM; in the experiment on DU-145 prostate, 0.0467 µM; with HS 578T breast, over 45.9 µM; in the experiment on MCF7 breast, 21.2 µM; in the experiment with SF-295 CNS, under 0.0275 µM; in the experiment on SN12C renal, over 100 µM. The TGI in the experiment with UACC-62 melanoma is over 100 µM.
As for `COc1ccc(/C=C2\N=C(c3ccccc3)N(c3cc(C(F)(F)F)ccc3Cl)C2=O)cc1OC`, the GI50 with A498 renal was over 100 µM; in the experiment on A549 NSCLC, 82 µM; in the experiment on DU-145 prostate, 43.1 µM; in the experiment with HS 578T breast, 24.4 µM; with MCF7 breast, 35.4 µM; in the experiment with NCI-H522 lung, 31.8 µM. The GI50 with SF-295 CNS was 95 µM; in the experiment on SN12C renal, 65.7 µM; with UACC-62 melanoma it was 64.3 µM. Moreover, the TGI is over 100 µM with A498 renal; over 100 µM in the experiment on A549 NSCLC; over 100 µM in the experiment with DU-145 prostate; 78.4 µM in the experiment with HS 578T breast; over 100 µM in the experiment with MCF7 breast; over 100 µM in the experiment on NCI-H522 lung. The TGI in the experiment on SF-295 CNS, in the experiment on SN12C renal and with UACC-62 melanoma was over 100 µM throughout.
Take `COc1cc(C(=O)NC2CCN(C)CC2)ccc1Nc1ncc2c(n1)N(C1CCCC1)CC(F)(F)C(=O)N2C`: the GI50 in the experiment with A498 renal was 0.028 µM; in the experiment with A549 NSCLC it was under 0.0193 µM; in the experiment on CCRF-CEM leukemia, under 0.01 µM; with DU-145 prostate it was under 0.01 µM; with HS 578T breast, 0.0585 µM; in the experiment on MCF7 breast it was under 0.01 µM. Further, the GI50 with NCI-H522 lung was 0.0129 µM; in the experiment on SF-295 CNS, 0.0491 µM; in the experiment with SN12C renal, 0.124 µM; with UACC-62 melanoma, under 0.0246 µM. Also, the TGI in the experiment on A498 renal was 0.272 µM; in the experiment with A549 NSCLC it was 4.38 µM; with CCRF-CEM leukemia, 12.2 µM; with DU-145 prostate, 0.0621 µM; in the experiment on HS 578T breast, 1.53 µM; in the experiment with MCF7 breast, 10.5 µM. The TGI was found to be 2.92 µM in the experiment on NCI-H522 lung, 3.51 µM with SF-295 CNS, 15 µM in the experiment with SN12C renal and 5.84 µM in the experiment on UACC-62 melanoma.
Consider `CC(=O)Oc1ccc2ccc(=O)oc2c1OC(C)=O`, for which the TGI with A498 renal was over 100 µM; in the experiment with A549 NSCLC, over 100 µM; in the experiment on CCRF-CEM leukemia, 46.1 µM; with DU-145 prostate, over 100 µM; in the experiment on HS 578T breast it was over 100 µM; in the experiment with MCF7 breast, over 100 µM. Besides, the TGI in the experiment on NCI-H522 lung, in the experiment with SF-295 CNS, in the experiment with SN12C renal and with UACC-62 melanoma was over 100 µM in each case.
In the case of `C[N+](C)(C)CCC(=O)N1C/C(=C\c2ccccc2)C(=O)/C(=C/c2ccccc2)C1`, the TGI was 35.3 µM in the experiment on A498 renal; 32.1 µM in the experiment on A549 NSCLC; 7.05 µM in the experiment with CCRF-CEM leukemia; 30.6 µM with DU-145 prostate; 21.2 µM in the experiment on HS 578T breast; 3.31 µM in the experiment with MCF7 breast. The TGI came to 5.42 µM in the experiment with NCI-H522 lung, 11.9 µM with SF-295 CNS, 4.59 µM with SN12C renal and 10.3 µM in the experiment on UACC-62 melanoma.
For `O=S(=O)(O)c1ccc(Cl)cc1.[Cd]`, the GI50 is over 100 µM with A498 renal; over 100 µM with A549 NSCLC; 24.9 µM in the experiment with CCRF-CEM leukemia; 67.3 µM in the experiment on DU-145 prostate; 47 µM with HS 578T breast; 34.6 µM with MCF7 breast. For the same compound, the GI50 in the experiment with NCI-H522 lung was 1.99 µM; with SF-295 CNS, over 100 µM; in the experiment on SN12C renal, over 100 µM; with UACC-62 melanoma, 13.8 µM. The TGI in the experiment with A498 renal is over 100 µM; with A549 NSCLC, over 100 µM; in the experiment with CCRF-CEM leukemia it was 85.4 µM; in the experiment with DU-145 prostate, over 100 µM; in the experiment with HS 578T breast, over 100 µM; in the experiment on MCF7 breast it was over 100 µM. Besides, the TGI in the experiment on NCI-H522 lung was 6.79 µM; in the experiment on SF-295 CNS, over 100 µM; in the experiment with SN12C renal, over 100 µM; in the experiment on UACC-62 melanoma it was 28 µM.
In the case of `COc1ccc2c(CC(=O)O)cc(=O)oc2c1`, the TGI in the experiment on A498 renal, in the experiment with A549 NSCLC, with CCRF-CEM leukemia, in the experiment on DU-145 prostate, in the experiment with HS 578T breast and in the experiment with MCF7 breast was over 100 µM each time. Further, the TGI with NCI-H522 lung, in the experiment on SF-295 CNS, with SN12C renal and in the experiment with UACC-62 melanoma was over 100 µM each time.

Values taken from PubChem BioAssay (NCI).
